Reference: patent US10149470B2, “Methods and compositions for vein harvest and autografting” (Vanderbilt University, priority 2009, dated 2018)
Entries after “also recorded” stand apart in the source; their conditions may differ.

Assays:
Assay type in all cases: cell-based
porcine saphenous vein [1] = assay: KCl-induced contraction of porcine saphenous vein after stretch injury, with or without dye
Protocol: Freshly isolated porcine saphenous vein was collected in cold transplant harvest buffer (100 mM potassium lactobionate, 25 mM KH2PO4, 5 mM MgSO4, 30 mM raffinose, 5 mM adenosine, 3 mM glutathione, 1 mM allopurinol, 50 g/L hydroxyethyl starch, pH 7.4). The vessels were tested within 24 hours of harvest and storage in transplant harvest buffer at 4° C. The vein was dissected free of fat and connective tissue and cut into 2 cm long segments. The segments were stretched to twice their resting length (stretched; n=7) or not manipulated (control; n=12). After stretching, the segments from both groups were further divided. A solution of erioglaucine (FCF, 2.6 mM, in 5% propylene glycol and water) or vehicle was then applied with a cotton swab in a longitudinal line to the untreated (FCF; n=8) or the stretched (Stretched+FCF; n=3) vein segments. The segments were incubated at room temperature for 15 min in Plasmalyte and then cut into rings. The rings were suspended in a muscle bath containing a bicarbonate buffer (120 mM NaCl, 4.7 mM KCl, 1.0 mM MgSO4, 1.0 mM NaH2PO4, 10 mM glucose, 1.5 mM CaCl2, and 25 mM […], pH 7.4), bubbled with 95% O2/5% CO2 at 37° C. The rings were manually stretched to 4 g of tension, and maintained at a resting tension of 1 g and equilibrated for ˜2 hr.
Rings from stretched segments were either incubated with 50 μM Allura Red (+Red) or 50 μM of erioglaucine (+FCF) for 30 min. The rings were then allowed to equilibrate in the bicarbonate buffer for before contracting with 110 mM KCl. Force generated was converted to stress (10^5 N/m^2). Data represent relative contractile response to Control rings which was set as 100%.

human saphenous vein [2] = assay: KCl-induced contraction of human saphenous vein rings treated with erioglaucine; settings: FIGS. 11A-B
Protocol: Effect of erioglaucine on human saphenous vein was determined using de-identified discarded segments of human saphenous vein from patients undergoing coronary artery bypass or peripheral vascular bypass surgery (n=4). The veins were stored in a saline solution until the end of the surgical procedure at which time they were placed in cold transplant harvest buffer (100 mM potassium lactobionate, 25 mM KH2PO4, 5 mM MgSO4, 30 mM raffinose, 5 mM adenosine, 3 mM glutathione, 1 mM allopurinol, 50 g/L hydroxyethyl starch, pH 7.4). The vessels were tested within 24 hrs of harvest storage in transplant harvest buffer at 4° C. To test the viability, rings 1.0 mm in width were cut from segments of saphenous vein dissected free of fat and connective tissue, treated with either a solution of erioglaucine (FCF, 2.6 mM, in 5% propylene glycol and water) or vehicle and incubated for 30 min at room temperature. The tissues were then stripped of the endothelium and suspended in a muscle bath containing a bicarbonate buffer, gassed with 95% O2/5% CO2 at 37° C. The rings were manually stretched to 4 g of tension, and was maintained at a resting tension of 1 g was obtained and equilibrated for ˜2 hr. […] The rings were contracted with 110 mM KCl (with equimolar replacement of NaCl in bicarbonate buffer), and the force generated was measured. […]

human saphenous vein [3] = assay: Intimal thickness of human saphenous vein rings in 14 day organ culture; settings: 50 μM erioglaucine, 14 days culture, compared to Control; FIG. 13
Protocol: Segments of human saphenous vein were collected prior to preparation of the vein for transplantation into the arterial circulation (unmanipulated, UM) and after surgical preparation (after manipulation, AM) from the same patients in PlasmaLyte and were used within 2 hr of harvest. The segment was cut into ˜1 mm rings and one ring from each group was fixed in formalin (Pre-culture). The other rings were cultured in RPMI medium supplemented with 1% L-glutamine, 1% penicillin/streptomycin and 30% fetal bovine serum at 5% CO2 and 37° C. in the absence (Control) or presence of 50 μM erioglaucine (FCF) for 14 days. After 14 days, the rings were fixed in formalin, sectioned at 5 μm and stained using Verhoff Van Gieson stain. Light micrograph of the rings was captured using an Axiovert 200 and intimal thickness was measured using AxioVision. Data represent % increase of intimal thickness related to basal intimal thickness of the pre-culture ring which was set as 0%. The error bars show the standard error of the mean.

porcine saphenous vein [4] = assay: Intimal thickening of distended porcine saphenous vein rings in 14 day organ culture; settings: 50 μM dye, 14 days culture, distended to >300 mm Hg, compared to Distended-Control; FIG. 14
Protocol: Fresh porcine saphenous vein was harvested by a no touch method under sterile conditions and stored in cold transplant harvest buffer (100 mM potassium lactobionate, 25 mM KH2PO4, 5 mM MgSO4, 30 mM Raffinose, 5 mM Adenosine, 3 mM Glutathione, 1 mM Allopurinol, 50 g/L Hydroxyethyl starch, pH 7.4). The vessels were used within 24 hr of harvest. The veins were divided into three segments that were left untreated (Unmanipulated, n=7), distended (Distended, n=8) to >300 mm Hg, or distended in the presence of the pressure relief valve (Pop Off, n=7). Each segment was then cut into ˜1 mm rings and one ring from each condition was immediately fixed in formalin (Pre-culture). The other rings were cultured in RPMI medium supplemented with 1% L-glutamine, penicillin/streptomycin and 30% Fetal bovine serum at 5% CO2 and 37° C. in the absence (Control) or presence of either 50 μM erioglaucine (FCF), 50 μM brilliant blue G (BBG) or 50 μM Allura Red (Red) for 14 days. After 14 days, the rings were fixed in formalin, sectioned at 5 μm and stained using Verhoff Van Gieson stain. Light micrograph of the rings was captured using a Axiovert 200 and intimal thickness was measured using AxioVision.

human saphenous vein [5] = assay: BzATP-induced contraction of saphenous vein rings after erioglaucine pretreatment; settings: erioglaucine 50-200 μM for 30 min, then 100 μM BzATP; FIG. 12
Protocol: Human saphenous vein segments were collected after harvest before surgical manipulation from patients undergoing coronary artery bypass or peripheral vascular bypass surgery and stored in PlasmaLyte. The vessels were tested within 2 hours of harvest. Freshly isolated porcine saphenous vein was collected in cold transplant harvest buffer (100 mM potassium lactobionate, 25 mM KH2PO4, 5 mM MgSO4, 30 mM Raffinose, 5 mM Adenosine, 3 mM Glutathione, 1 mM Allopurinol, 50 g/L Hydroxyethyl starch, pH 7.4). The vessels were tested within 24 hours of harvest. Rings 1.0 mm in width were cut from porcine saphenous veins (FIG. 12A, n=2) and unmanipulated human saphenous vein (FIG. 12B, n=4) dissected free of fat and connective tissue. The rings were then stripped of the endothelium and suspended in a muscle bath containing a bicarbonate buffer, bubbled with 95% O2/5% CO2 at 37° C. The rings were manually stretched to 4 g of tension, and was maintained at a resting tension of 1 g was obtained and equilibrated for ˜2 hr. Force measurements were obtained using a Radnoti Glass Technology (Monrovia, Calif.) force transducer (159901A) interfaced with a Powerlab data acquisition system and Chart software (AD Instruments, Colorado Springs, Colo.). Rings were contracted with 110 mM KCl. […] Force was measured and converted to stress. Response was expressed as % of maximal KCl contraction. […]

SMILES: CCN(Cc1cccc(S(=O)(=O)[O-])c1)c1ccc(C(=C2C=CC(=[N+](CC)Cc3cccc(S(=O)(=O)[O-])c3)C=C2)c2ccccc2S(=O)(=O)[O-])cc1.[Na+].[Na+] [erioglaucine]
- restoration of functional viability (contractile response to KCl) after stretch injury (porcine saphenous vein [1]; 50 μM dye for 30 min on rings from stretched segments, FIG. 10): significantly restored contractile response
- restoration of functional viability after stretch injury (in words) (porcine saphenous vein [1]; FIG. 9): restores functional viability
- smooth muscle viability (in words) (human saphenous vein [2]): restores smooth muscle viability
- development of intimal thickness (human saphenous vein [3]): inhibited the development of intimal thickness; also recorded: reduces intimal thickness
- distension induced increases in intimal thickening (porcine saphenous vein [4]): inhibited distension induced increases in intimal thickening; also recorded: reduces intimal layer thickening
- BzATP induced contraction (human saphenous vein [5]): significantly inhibited BzATP induced contraction; also recorded: blocks BzATP-induced contraction
